Literature values as cited in PMC9516332 (Frontiers in Oncology, 2022).
Where two headings read alike, the source gives them in different places.

Experiments:
[1] = biological target: panel of 255 wild-type kinases (Homo sapiens, UniProt O95819); conditions: kinase HGK, 1 µmol/L single concentration, cited from earlier work
[2] = biological target: panel of 255 wild-type kinases (Homo sapiens, UniProt Q9H2G2); conditions: kinase SLK, 1 µmol/L single concentration, cited from earlier work
[3] = biological target: panel of 255 wild-type kinases (Homo sapiens, UniProt P24723); conditions: kinase PKCη, 1 µmol/L single concentration, cited from earlier work
[4] = biological target: panel of 255 wild-type kinases (Homo sapiens, UniProt P27448); conditions: MARK3, 1 µmol/L single concentration, cited from earlier work
[5] = biological target: panel of 255 wild-type kinases (Homo sapiens, UniProt O96013); conditions: PAK4, 1 µmol/L single concentration, cited from earlier work
[6] = biological target: panel of 255 wild-type kinases (Homo sapiens, UniProt P31749); conditions: AKT1 kinase assay, 1 µmol/L single concentration, cited from earlier work
[7] = biological target: panel of 255 wild-type kinases (Homo sapiens, UniProt P11802); conditions: CDK4/CycD3 kinase assay, 1 µmol/L single concentration, cited from earlier work
[8] = biological target: T1, panel of 255 wild-type kinases (Homo sapiens, UniProt Q9UHD2); conditions: kinase TBK1, 1 µmol/L single concentration, cited from earlier work
T1 sequence (Q9UHD2 1-729): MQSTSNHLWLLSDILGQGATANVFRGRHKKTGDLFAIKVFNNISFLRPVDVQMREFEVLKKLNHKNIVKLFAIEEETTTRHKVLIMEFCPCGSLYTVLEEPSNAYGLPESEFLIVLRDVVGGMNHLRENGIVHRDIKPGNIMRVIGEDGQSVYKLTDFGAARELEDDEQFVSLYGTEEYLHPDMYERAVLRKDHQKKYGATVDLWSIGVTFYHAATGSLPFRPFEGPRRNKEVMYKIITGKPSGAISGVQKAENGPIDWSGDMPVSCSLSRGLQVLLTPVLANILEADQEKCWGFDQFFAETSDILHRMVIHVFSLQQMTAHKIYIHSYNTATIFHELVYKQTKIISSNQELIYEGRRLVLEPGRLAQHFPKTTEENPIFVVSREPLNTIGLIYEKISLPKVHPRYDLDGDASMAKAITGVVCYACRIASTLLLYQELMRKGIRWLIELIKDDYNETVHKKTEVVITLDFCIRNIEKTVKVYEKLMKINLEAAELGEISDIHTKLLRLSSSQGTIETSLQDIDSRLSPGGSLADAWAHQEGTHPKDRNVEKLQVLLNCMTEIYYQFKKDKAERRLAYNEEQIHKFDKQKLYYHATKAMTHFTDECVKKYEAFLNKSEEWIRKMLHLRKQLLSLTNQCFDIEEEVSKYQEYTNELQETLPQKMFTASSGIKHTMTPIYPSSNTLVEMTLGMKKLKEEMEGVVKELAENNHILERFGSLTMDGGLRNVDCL

[9] = biological target: panel of 255 wild-type kinases (Homo sapiens, UniProt Q9Y6E0); conditions: MST3, 1 µmol/L single concentration, cited from earlier work
[10] = biological target: panel of 255 wild-type kinases (Homo sapiens, UniProt P11309); conditions: kinase PIM1, 1 µmol/L single concentration, cited from earlier work
[11] = biological target: panel of 255 wild-type kinases (Homo sapiens, UniProt P06213); conditions: kinase INSR, 1 µmol/L single concentration, cited from earlier work
[12] = biological target: panel of 255 wild-type kinases (Homo sapiens, UniProt Q9Y3S1); conditions: kinase WNK2, 1 µmol/L single concentration, cited from earlier work
[13] = biological target: panel of 255 wild-type kinases (Homo sapiens, UniProt Q9UBS0); conditions: p70S6Kβ, 1 µmol/L single concentration, cited from earlier work
[14] = biological target: panel of 255 wild-type kinases (Homo sapiens, UniProt P22612); conditions: kinase PKACγ, 1 µmol/L single concentration, cited from earlier work
[15] = biological target: T2, panel of 255 wild-type kinases (Homo sapiens, UniProt Q96KB5); conditions: kinase PBK, 1 µmol/L single concentration, cited from earlier work
T2 sequence (Q96KB5 1-322): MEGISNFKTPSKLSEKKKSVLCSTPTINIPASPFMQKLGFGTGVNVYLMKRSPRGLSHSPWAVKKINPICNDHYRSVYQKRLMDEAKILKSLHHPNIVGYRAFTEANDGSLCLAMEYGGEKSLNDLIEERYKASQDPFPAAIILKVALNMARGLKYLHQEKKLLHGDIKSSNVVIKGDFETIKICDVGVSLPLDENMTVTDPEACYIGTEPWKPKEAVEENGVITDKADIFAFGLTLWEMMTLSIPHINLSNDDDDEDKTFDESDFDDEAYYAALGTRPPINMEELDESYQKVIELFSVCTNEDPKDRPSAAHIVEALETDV

[16] = ref DOI: 10.1371/journal.pone.0092146
[17] = ref DOI: 10.1158/1535-7163.MCT-18-0877

SMILES | %-inhibition at 1 µmol/L, HGK [1, 16] | %-inhibition at 1 µmol/L, SLK [2, 16] | %-inhibition at 1 µmol/L, PKCη [3, 16] | %-inhibition, MARK3 [4, 16] | %-inhibition, PAK4 [5, 16] | %-inhibition AKT1 [6, 16] | %-inhibition CDK4/CycD3 [7, 16] | %-inhibition at 1 µmol/L, TBK1 [8, 16] | %-inhibition, MST3 [9, 16] | %-inhibition at 1 µmol/L, PIM1 [10, 16] | %-inhibition at 1 µmol/L, INSR [11, 16] | %-inhibition at 1 µmol/L, WNK2 [12, 16] | %-inhibition, p70S6Kβ [13, 16] | %-inhibition at 1 µmol/L, PKACγ [14, 16] | %-inhibition at 1 µmol/L, PBK [15, 16] | %-inhibition at 1 µmol/L, HGK [1, 17] | %-inhibition at 1 µmol/L, SLK [2, 17] | %-inhibition at 1 µmol/L, PKCη [3, 17] | %-inhibition, MARK3 [4, 17] | %-inhibition, PAK4 [5, 17] | other results
CC(=O)Nc1cccc(-n2c(=O)n(C3CC3)c(=O)c3c(Nc4ccc(I)cc4F)n(C)c(=O)c(C)c32)c1 [trametinib] | -3.71% | -2.6% | -8% | -3.21% | -0.675% | -3% | 5.62% | -4.47% | 1.75% | 4.44% | -30% | 1.45% | -1% | 2% | -3.79% |  |  |  |  |  | 
Cc1cc(Nc2ncc(Cl)c(Nc3ccccc3S(=O)(=O)C(C)C)n2)c(OC(C)C)cc1C1CCNCC1 [ceritinib] |  |  |  |  |  |  |  |  |  |  |  |  |  |  |  | 10% | 64% | 5.3% | 10% | 13% | %-inhibition AKT1 [6, 17]: -8%; %-inhibition CDK4/CycD3 [7, 17]: 4.63%; %-inhibition at 1 µmol/L, TBK1 [8, 17]: 4%; %-inhibition, MST3 [9, 17]: 31%; %-inhibition at 1 µmol/L, PIM1 [10, 17]: -8%; %-inhibition at 1 µmol/L, INSR [11, 17]: 102%; %-inhibition at 1 µmol/L, WNK2 [12, 17]: -1.28%; %-inhibition, p70S6Kβ [13, 17]: 70%; %-inhibition at 1 µmol/L, PKACγ [14, 17]: 1.46%; %-inhibition at 1 µmol/L, PBK [15, 17]: -11%
C[C@@H](Oc1cc(-c2cnn(C3CCNCC3)c2)cnc1N)c1c(Cl)ccc(F)c1Cl [crizotinib] |  | 100% | -8% | 41% | -5.56% | -7% | 7% | 1.42% | 11% | -7% | 84% | -4% | 6% | -6.52% | -14% |  |  |  |  |  | 
C=CC(=O)Nc1cc(Nc2nccc(-c3cn(C)c4ccccc34)n2)c(OC)cc1N(C)CCN(C)C [osimertinib] |  |  |  |  |  |  |  |  |  |  |  |  |  |  |  | 80% | 17% | 0.117% | 9% | 12% | %-inhibition AKT1 [6, 17]: -9%; %-inhibition CDK4/CycD3 [7, 17]: 2.42%; %-inhibition at 1 µmol/L, TBK1 [8, 17]: 9%; %-inhibition, MST3 [9, 17]: 5.71%; %-inhibition at 1 µmol/L, PIM1 [10, 17]: -4.4%; %-inhibition at 1 µmol/L, INSR [11, 17]: 86%; %-inhibition at 1 µmol/L, WNK2 [12, 17]: 4.6%; %-inhibition, p70S6Kβ [13, 17]: 20%; %-inhibition at 1 µmol/L, PKACγ [14, 17]: 7.4%; %-inhibition at 1 µmol/L, PBK [15, 17]: 77%
CCCS(=O)(=O)Nc1ccc(F)c(C(=O)c2c[nH]c3ncc(-c4ccc(Cl)cc4)cc23)c1F [vemurafenib] | 26% | 43% | -22% | -0.226% | -7% | -4.52% | -3.26% | -0.81% | -1.73% | -3.41% | 17% | 13% | 0.235% | -3% | -12% |  |  |  |  |  | 
